In US7468357B2, “Nucleosides with anti-hepatitis B virus activity” (Emory University, priority 1994, dated 2008):
“And” between values parts separate entries of the source, which are not always exact repeats. Equal values may be shown once. Read-outs that look alike come from different tables or passages of the source.

Columns and labels:
[1] = test system: Hepatitis B virus; test: Inhibition of HBV replication in transfected HepG-2 (2.2.15) cells (HBV virion DNA and replicative intermediates, blot hybridization); type: cell-based; conditions: for Selectivity Index IC50/EC50 RI: cytotoxicity IC50 / RI EC50; for Selectivity Index IC50/EC50 Virion: cytotoxicity IC50 / virion EC50; for Selectivity Index IC50/EC90 RI: cytotoxicity IC50 / RI EC90
Procedure: The assay used herein to evaluate the ability of the disclosed compounds to inhibit the replication of HBV is described in detail in Korba and Gerin, Antiviral Res. 19: 55-70 (1992). […] The toxicity and anti-HBV activity of (−)-β-L-2-hydroxymethyl-5-(5-fluorocytosin-1-yl)-1,3-oxathiolane ((−)-β-L-FTC) and β-D-2′,3′-dideoxycytidine (β-D-ddC) are included as controls. The other compounds disclosed herein can be evaluated similarly.
The antiviral evaluations were performed on two separate passages of cells, two cultures per passage (4 cultures total). All wells, in all plates, were seeded at the same density and at the same time.
(Korba and Gerin, Antiviral Res. 19: 55-70, 1992). The levels of integrated HBV DNA in each cellular DNA preparation (which remain constant on a per cell basis in these experiments) were used to calculate the levels of intracellular HBV DNA forms, thereby eliminating technical variations inherent in the blot hybridization assays.
(§1) Toxicity analyses were performed in order to assess whether any observed antiviral effects were due to a general effect on cell viability. The method used was based on the uptake of neutral red dye, a standard and widely used assay for cell viability in a variety of virus-host systems, including HSV (herpes simplex virus) and HIV. The test compounds were used in the form of 40 mM stock solutions in DMSO (frozen on dry ice). Daily aliquots of the test samples were made and frozen at −20° C. so that each individual aliquot would be subjected to a single freeze-thaw cycle. The daily test aliquots were thawed, suspended into culture medium at room temperature and immediately added to the cell cultures. The compounds were tested at 0.01 to 10 μM for antiviral activity. The compounds were tested for toxicity at concentrations from 1 to 300 μM.

[2] = Toxicity analysis by uptake of neutral red dye in 2.2.15 cell cultures; conditions: human
Procedure: as §1
(§2) Toxicity analyses were performed in 96-well flat bottomed tissue culture plates. Cells for the toxicity analyses were cultured and treated with test compounds with the same schedule as used for the antiviral evaluations. Each compound was tested at 4 concentrations, each in triplicate cultures. Uptake of neutral red dye was used to determine the relative level of toxicity. The absorbance of internalized dye at […] (A510) was used for the quantitative analysis. Values are presented as a percentage of the average A510 values (± standard deviations) in 9 separate cultures of untreated cells maintained on the same 96-well plate as the test compounds.

[3] = test system: 2.2.15 cells (HepG2 cells transformed with hepatitis virion); test: as above
Procedure: as §1, §2

[4] = biological target: T1, human DNA polymerase α (Homo sapiens, UniProt P09884); test: Inhibition of human DNA polymerase α by triphosphates; type: biochemical; conditions: read-out: DNA Pol α Ki
T1 sequence (P09884 1-1462): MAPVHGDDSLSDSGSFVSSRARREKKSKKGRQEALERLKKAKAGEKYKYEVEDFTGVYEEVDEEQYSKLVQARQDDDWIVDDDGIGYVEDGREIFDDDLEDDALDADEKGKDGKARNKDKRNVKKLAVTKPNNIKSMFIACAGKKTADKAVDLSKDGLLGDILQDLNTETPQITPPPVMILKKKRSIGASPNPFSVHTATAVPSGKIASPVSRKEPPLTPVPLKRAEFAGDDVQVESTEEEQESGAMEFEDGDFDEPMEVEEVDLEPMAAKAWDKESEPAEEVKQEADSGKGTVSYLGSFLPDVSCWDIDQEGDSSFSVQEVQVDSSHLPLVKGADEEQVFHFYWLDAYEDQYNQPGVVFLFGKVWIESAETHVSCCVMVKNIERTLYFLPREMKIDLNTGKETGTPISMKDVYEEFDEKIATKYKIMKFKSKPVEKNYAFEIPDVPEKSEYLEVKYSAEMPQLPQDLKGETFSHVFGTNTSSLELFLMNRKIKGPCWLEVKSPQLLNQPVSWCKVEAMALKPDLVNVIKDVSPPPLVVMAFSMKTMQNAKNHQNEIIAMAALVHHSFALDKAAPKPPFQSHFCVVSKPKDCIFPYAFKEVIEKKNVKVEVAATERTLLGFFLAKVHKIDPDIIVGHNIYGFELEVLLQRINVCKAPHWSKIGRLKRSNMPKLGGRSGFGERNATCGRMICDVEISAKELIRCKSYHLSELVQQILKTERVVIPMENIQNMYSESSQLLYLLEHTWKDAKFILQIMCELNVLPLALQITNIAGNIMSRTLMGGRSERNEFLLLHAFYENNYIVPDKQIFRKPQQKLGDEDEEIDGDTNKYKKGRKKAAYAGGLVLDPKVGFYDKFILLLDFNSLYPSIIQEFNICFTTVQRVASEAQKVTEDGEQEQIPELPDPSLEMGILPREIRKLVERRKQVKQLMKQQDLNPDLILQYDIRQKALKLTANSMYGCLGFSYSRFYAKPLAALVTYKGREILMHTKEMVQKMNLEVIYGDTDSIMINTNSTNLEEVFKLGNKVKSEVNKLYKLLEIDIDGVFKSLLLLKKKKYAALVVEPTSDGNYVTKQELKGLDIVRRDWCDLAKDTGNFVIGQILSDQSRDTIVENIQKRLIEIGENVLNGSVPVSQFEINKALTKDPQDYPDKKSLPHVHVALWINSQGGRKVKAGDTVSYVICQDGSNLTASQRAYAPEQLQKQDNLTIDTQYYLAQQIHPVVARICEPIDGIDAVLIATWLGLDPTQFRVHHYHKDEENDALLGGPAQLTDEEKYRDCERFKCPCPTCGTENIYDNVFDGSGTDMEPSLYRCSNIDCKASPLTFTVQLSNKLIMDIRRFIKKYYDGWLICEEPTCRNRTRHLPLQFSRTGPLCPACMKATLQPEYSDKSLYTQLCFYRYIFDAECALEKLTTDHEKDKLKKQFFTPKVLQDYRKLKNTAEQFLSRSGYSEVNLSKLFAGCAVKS

[5] = biological target: woodchuck hepatitis virus DNA polymerase (Woodchuck hepatitis B virus, UniProt P03160); test: Inhibition of woodchuck hepatitis virus DNA polymerase by triphosphates; type: biochemical; conditions: read-out: WHB DNA Pol IC50
[6] = biological target: human DNA polymerase β (Homo sapiens, UniProt P06746); test: Inhibition of human DNA polymerase β by triphosphates; type: biochemical; conditions: read-out: DNA Pol β Ki
[7] = test system: 2.2.15 cells (HepG2 cells transformed with hepatitis virion); conditions: typically observed, Korba and Gerin 1992; read-out: Concentration giving a 2-fold reduction in dye uptake; cited from earlier work
[8] = test system: Hepatitis B virus; conditions: previous studies, Korba and Gerin 1992; cited from earlier work
[9] = read-out: Cytotoxity IC50 ± SD, Table 1, neutral red dye uptake, 2.2.15 cells
[10] = Table 2, extracellular DNA, transfected Hep G-2 (2.2.15) cells, read-out: HBV Virion EC50
[11] = Table 2, replicative intermediates (intracellular DNA), transfected Hep G-2 (2.2.15) cells, read-out: HBV RI EC50
[12] = read-out: Cytotoxicity IC50, Table 2, Hep G-2 (2.2.15) cells

Chain of woodchuck hepatitis virus DNA polymerase (P03160 whole entry): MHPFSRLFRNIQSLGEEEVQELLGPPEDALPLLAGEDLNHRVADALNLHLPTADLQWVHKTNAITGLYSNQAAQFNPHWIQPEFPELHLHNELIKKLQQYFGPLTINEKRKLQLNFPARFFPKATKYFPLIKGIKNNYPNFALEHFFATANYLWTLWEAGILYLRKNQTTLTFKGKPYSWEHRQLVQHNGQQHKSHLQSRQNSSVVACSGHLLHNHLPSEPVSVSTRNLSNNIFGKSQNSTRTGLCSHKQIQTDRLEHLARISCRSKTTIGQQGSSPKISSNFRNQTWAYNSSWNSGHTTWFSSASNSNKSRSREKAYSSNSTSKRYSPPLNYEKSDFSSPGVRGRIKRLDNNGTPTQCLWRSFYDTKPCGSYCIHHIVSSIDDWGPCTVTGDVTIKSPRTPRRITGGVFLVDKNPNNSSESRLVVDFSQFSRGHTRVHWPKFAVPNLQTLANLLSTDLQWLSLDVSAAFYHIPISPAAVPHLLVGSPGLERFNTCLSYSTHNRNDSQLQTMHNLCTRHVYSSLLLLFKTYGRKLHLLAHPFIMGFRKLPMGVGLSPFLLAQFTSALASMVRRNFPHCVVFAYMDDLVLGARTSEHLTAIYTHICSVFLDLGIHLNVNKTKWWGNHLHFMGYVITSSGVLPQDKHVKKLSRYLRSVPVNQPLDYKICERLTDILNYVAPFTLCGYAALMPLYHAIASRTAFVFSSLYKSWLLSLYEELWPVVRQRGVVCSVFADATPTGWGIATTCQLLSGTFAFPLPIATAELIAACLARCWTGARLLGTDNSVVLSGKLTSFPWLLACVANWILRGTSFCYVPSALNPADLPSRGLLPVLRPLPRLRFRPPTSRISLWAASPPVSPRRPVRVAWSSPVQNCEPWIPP

## Nc1nc(=O)n([C@H]2O[C@@H](CO)C[C@H]2F)cc1F [2′-F-β-L-5FDDC, 1-(2-Fluoro-2,3-dideoxy-β-L-threo-pentofuranosyl)-5-fluorocytosine]
[1]; Hepatitis B virus, HepG2 2.2.15, read-out: HBV RI EC50
  EC50: 5 µM
[1]; Hepatitis B virus, HepG2 2.2.15, read-out: HBV Virion EC50
  EC50: 1.7 µM
[1]; Table 2
  Selectivity Index IC50/EC50 RI: 42
  Selectivity Index IC50/EC50 Virion: 124
[2]
  IC50: 210 µM

## Nc1nc(=O)n(C2CSC(CO)O2)cc1F [(−)-β-L-FTC, (−)-β-L-2-hydroxymethyl-5-(5-fluorocytosin-1-yl)-1,3-oxathiolane, reference compound]
[1]; Table 1
  Selectivity Index IC50/EC90 RI: 1,622
[1]; Table 1, cytotoxicity IC50 / virion EC90
  Selectivity Index IC50/EC90 Virion: 1,947
[1]; Table 1, extracellular DNA, transfected HEPG-2 (2.2.15) cells, read-out: HBV viron EC50 ± SD
  EC50: 0.017 ± 0.005 µM
[1]; Table 1, extracellular DNA, transfected HEPG-2 (2.2.15) cells, read-out: HBV viron EC90 ± SD
  EC90: 0.15 ± 0.02 µM
[1]; Table 1, replicative intermediates (intracellular DNA), transfected HEPG-2 (2.2.15) cells, read-out: HBV RI EC50 ± SD
  EC50: 0.049 ± 0.008 µM
[1]; Table 1, replicative intermediates (intracellular DNA), transfected HEPG-2 (2.2.15) cells, read-out: HBV RI EC90 ± SD
  EC90: 0.18 ± 0.03 µM
[3]; [9]
  IC50: 292 ± 13 µM

## CC(=O)SCCOP(=O)(OCCSC(C)=O)OC[C@@H]1O[C@H](n2cc(C)c(=O)[nH]c2=O)C[C@H]1N=[N+]=[N-] [Bis (Sate) β-L-AZTMP]
[1]; Table 2
  Selectivity Index IC50/EC50 RI: 25
  Selectivity Index IC50/EC50 Virion: 27
[1]; [10]
  EC50: 7.5 µM
[1]; [11]
  EC50: 8 µM
[3]; [12]
  IC50: 200 µM

## CC(C)(C)C(=O)SCCOP(=O)(OCCSC(=O)C(C)(C)C)OCC1CCC(n2cnc3c(N)ncnc32)O1 [Bis (Sate) β-L-ddAMP, β-L-2′,3′-Dideoxyadenosin-5′-yl bis (2-pivaloylthioethyl) phosphate]
[1]; Table 2
  Selectivity Index IC50/EC50 RI: 571
  Selectivity Index IC50/EC50 Virion: 445
[1]; [10]
  EC50: 0.45 µM
[1]; [11]
  EC50: 0.35 µM
[3]; [12]
  IC50: 200 µM

## Nc1ccn([C@@H]2CS[C@H](COP(=O)(O)OP(=O)(O)OP(=O)(O)O)O2)c(=O)n1 [Compound 3-TC-TP, reference compound]
[4]
  Ki: > 100 µM
[5]
  IC50: 1 µM
[6]
  Ki: > 100 µM

## Nc1ccn([C@H]2CC[C@@H](CO)O2)c(=O)n1 [β-D-DDC, β-D-2′,3′-dideoxycytidine, reference compound]
[7]
  IC50: 150 to 190 µM
[1]; 2.2.15 cells
  Inhibition of HBV replication (depression of HBV virion DNA and HBV RI), in words: significant depressions of HBV DNA replication
[1]; Hepatitis B virus, HepG2 2.2.15, read-out: HBV RI EC90 ± SD, Table 1, replicative intermediates (intracellular DNA), transfected HEPG-2 (2.2.15) cells
  EC90: 11 ± 2 µM
[1]; Hepatitis B virus, HepG2 2.2.15, read-out: HBV viron EC50 ± SD, Table 1, extracellular DNA, transfected HEPG-2 (2.2.15) cells
  EC50: 1.5 ± 0.7 µM
[1]; Table 1
  Selectivity Index IC50/EC90 RI: 20 and 18
[1]; read-out: HBV RI EC90 ± SD, Table 1, replicative intermediates (intracellular DNA), transfected HEPG-2 (2.2.15) cells
  EC90: 12 ± 2.4 µM
[1]; read-out: HBV viron EC50 ± SD, Table 1, extracellular DNA, transfected HEPG-2 (2.2.15) cells
  EC50: 1.3 µM
[2]; Cytotoxity IC50 ± SD, Table 1, neutral red dye uptake, 2.2.15 cells
  IC50: 216 ± 22 µM
[3]; [9]
  IC50: 219 µM
[8]
  Concentration giving a 90% depression of HBV RI: 9 to 12 µM
